Values after ≈ are worked out from the molar mass of the structure shown. Active and inactive are the calls of the source. The calls are words filed in the database; no cut-off is given here.
Columns and labels:
Escherichia coli [1] = assay: Antibacterial activity against Escherichia coli ATCC 25922 harboring hldE knock-out assessed as inhibition of bacterial growth incubated for 18 hrs; assay type: functional; settings: read-out: MIC100
[2] = Hydrophobicity of compound assessed as %MeCN at peak elution by RP-HPLC analysis; assay type: physicochemical
Klebsiella pneumoniae [3] = assay: Antibacterial activity against wild-type Klebsiella pneumoniae ATCC 13883 assessed as inhibition of bacterial growth incubated for 18 hrs in presence of 50% heat inactivated human serum; assay type: functional; settings: read-out: MIC100
Staphylococcus aureus = assay: Antibacterial activity against […] assessed as inhibition of bacterial growth incubated for 18 hrs; assay type: functional; settings: ATCC 29213, read-out: MIC100
Escherichia coli [4] = assay: Antibacterial activity against Escherichia coli ATCC 25922 harboring tolC knock-out assessed as inhibition of bacterial growth incubated for 18 hrs; assay type: functional; settings: read-out: MIC100
[5] = Cytotoxicity against human HepG2 cells incubated for 40 hrs by celltiter-glo luminescent cell viability assay; assay type: toxicity, cell-based
Escherichia coli [6] = assay: Antibacterial activity against wild-type Escherichia coli ATCC 25922 assessed as inhibition of bacterial growth incubated for 18 hrs; assay type: functional; settings: read-out: MIC100
Escherichia coli [7] = assay: Antibacterial activity against wild-type Escherichia coli ATCC 25922 assessed as inhibition of bacterial growth by measuring fold increase in MIC incubated for 18 hrs in presence of 50% heat inactivated human serum relative to control; assay type: functional
Acinetobacter baumannii = assay: Antibacterial activity against wild-type Acinetobacter baumannii ATCC 19606 assessed as inhibition of bacterial growth incubated for 20 hrs; assay type: functional; settings: read-out: MIC100
Escherichia coli [8] = assay: Antibacterial activity against wild-type Escherichia coli ATCC 25922 assessed as inhibition of bacterial growth incubated for 18 hrs in presence of 50% heat inactivated human serum; assay type: functional; settings: read-out: MIC100
Bacteria = assay: Binding affinity to gram negative bacterial lipid II at 250 uM by ITC analysis
Klebsiella pneumoniae [9] = assay: Antibacterial activity against wild-type Klebsiella pneumoniae ATCC 13883 assessed as inhibition of bacterial growth incubated for 18 hrs; assay type: functional; settings: read-out: MIC100
Pseudomonas aeruginosa = assay: Antibacterial activity against wild-type Pseudomonas aeruginosa PAO1 assessed as inhibition of bacterial growth incubated for 24 hrs; assay type: functional; settings: read-out: MIC100
[10] = Hemolytic activity in human red blood cells at 400 ug/ml incubated for 45 mins by spectrophotometric analysis relative to control; assay type: toxicity, cell-based, Erythrocyte; settings: red blood cells (erythrocytes), at 400 µg/mL, read-out: Activity
Lipopolysaccharide (LPS) = assay: Binding affinity to Escherichia coli O55:B5 LPS assessed as dissociation constant by ITC analysis; assay type: subcellular
[11] = Drug localization in cytoplasm of Escherichia coli ATCC 25922 at 10 uM incubated for 10 mins by LC-MS/MS analysis; assay type: ADME, subcellular
[12] = Drug uptake in Escherichia coli ATCC 25922 at 10 uM incubated for 10 mins by LC-MS/MS analysis; assay type: ADME

| SMILES | MIC (Escherichia coli [1]) [µg/mL] | MeCN percentage at peak elution [2] [%] | MIC (Klebsiella pneumoniae [3]) [µg/mL] | MIC (Staphylococcus aureus) [µg/mL] | MIC (Escherichia coli [4]) [µg/mL] | IC50 at 40 h [5] [µg/mL] | MIC (Escherichia coli [6]) [µg/mL] | fold change (FC) (Escherichia coli [7]) | MIC (Acinetobacter baumannii) [µg/mL] | MIC (Escherichia coli [8]) [µg/mL] | Activity (Bacteria) | MIC (Klebsiella pneumoniae [9]) [µg/mL] | MIC (Pseudomonas aeruginosa) [µg/mL] | hemolysis at 0.75 h, 400 ug/ml [10] [%] | Kd (Lipopolysaccharide (LPS)) [µM] | Drug uptake [11] | Drug uptake [12] |
| --- | --- | --- | --- | --- | --- | --- | --- | --- | --- | --- | --- | --- | --- | --- | --- | --- | --- |
| CC[C@H](C)[C@@H](NC(=O)[C@@H](NC(=O)[C@H](CCC(=O)O)NC(=O)[C@H](Cc1ccccc1)NC(=O)[C@@H](CCN)NC(=O)[C@H](CCN)NC(=O)[C@H](CO)NC(=O)[C@@H](Cc1c[nH]c2ccccc12)NC(=O)[C@@H](CO)NC(=O)CNC(=O)[C@@H](CCN)NC(=O)[C@H](N)C(C)C)C(C)(C)C)C(=O)N[C@@H](C)C(N)=O | 0.125 (≈ 0.0888 µM) | 41 | 4 | > 64 | 0.25 (≈ 0.178 µM) | 93 (≈ 66.1 µM) | 4 (≈ 2.84 µM) | 2 | > 64 | 2 | inactive | 2 (≈ 1.42 µM) | 16 (≈ 11.4 µM) | 2.6 | 16.7 | – | – |
| CC[C@H](C)[C@@H](NC(=O)[C@@H](NC(=O)[C@H](CCC(=O)O)NC(=O)[C@H](Cc1ccccc1)NC(=O)[C@@H](CCN)NC(=O)[C@H](CCN)NC(=O)[C@H](CO)NC(=O)[C@@H](Cc1c[nH]c2ccccc12)NC(=O)[C@@H](CO)NC(=O)CNC(=O)[C@@H](CCN)NC(=O)[C@H](N)C(C)C)C(C)(C)C)C(=O)N[C@@H](C)C(=O)O | – | – | – | – | – | – | 16 (≈ 11.4 µM) | – | – | – | – | 4 (≈ 2.84 µM) | – | 86.3 | – | Active | Active |
